Results reported in patent US11814368B2, “Triazine derivatives having virus replication inhibitory activity and pharmaceutical composition comprising the same” (priority 2021, dated 2023).

Test system: SARS-CoV-2
Test: microbe, parasite or virus in culture
Format: cell-based
Settings: for EC50: Severe acute respiratory syndrome coronavirus 2, 72 h, read-out: 50% SARS-CoV-2 infected cell death inhibitory concentration (EC50), VeroE6/TMPRSS2 cells, SARS-CoV-2, 3 days culture, CellTiter-Glo 2.0; for coronavirus replication inhibitory activity: at concentrations up to 50 µM

SMILES	EC50	coronavirus replication inhibitory activity
Cc1nc2ccc(/N=c3\[nH]c(=O)n(C[C@H]4COC(C)(C)O4)c(=O)n3Cc3ccc(Cl)cc3)cc2s1 [Patent Document 1 Compound 1-1603]	> 50 µM	did not show coronavirus replication inhibitory activity
CC(C)Oc1ccc(/N=c2\[nH]c(=O)n(Cc3ncn[nH]3)c(=O)n2Cc2ccc(Cl)cc2)cc1F [Patent Document 1 Compound I-0679]	> 50 µM	did not show coronavirus replication inhibitory activity
COc1ncccc1Cn1c(=O)[nH]/c(=N\c2ccc(OC(C)C)c(F)c2)n(Cc2ccc(Cl)cc2)c1=O [Patent Document 1 Compound I-0683]	> 50 µM	did not show coronavirus replication inhibitory activity
CC(C)Oc1ccc(/N=c2\[nH]c(=O)n(Cc3ccc[nH]c3=O)c(=O)n2Cc2ccc(Cl)cc2)cc1F [Patent Document 1 Compound I-0685]	> 50 µM	did not show coronavirus replication inhibitory activity
O=C(O)c1ccc(Oc2ccc(/N=c3\[nH]c(=O)n(-c4cccs4)c(=O)n3Cc3ccc(Cl)cc3)cc2)nc1 [Patent Document 2 Compound I-575]	> 50 µM	did not show coronavirus replication inhibitory activity
O=C(O)c1ccc(Oc2ccc(/N=c3\[nH]c(=O)n(-c4ccon4)c(=O)n3Cc3ccc(Cl)cc3)cc2)nc1 [Patent Document 2 Compound I-580]	> 50 µM	did not show coronavirus replication inhibitory activity
Cc1ccc(Cn2c(=O)nc(Nc3cccc(C(F)(F)F)c3)n(Cc3ccc(Cl)c(Cl)c3)c2=O)cc1 [Patent Document 3 Compound 1-066]	> 50 µM	did not show coronavirus replication inhibitory activity
